Measured values published in patent publication US9476099B2 (TRUSTEES OF DARTMOUTH COLLEGE, priority 2012, dated 2016).
Values joined by “and” are separate entries in the source; they are usually repeats but may differ in a detail not shown here. Equal entries are not always repeated.

Tested on: NT2/D1-R1 control and DNMT3B knockdown cells
Assay: Genome-wide expression analysis with PAM clusters, control and DNMT3B knockdown cells (Tables 8-14)
Details: sh-Ctrl + aza; 10 nM decitabine, 3 days

## Nc1ncn([C@H]2C[C@H](O)[C@@H](CO)O2)c(=O)n1 [aza]
  ADAMTSL2 NM_014694 expression Mean: 295.667
  ADM NM_001124 expression Mean: 937.101
  AFMID NM_0010109 expression Mean: 303.389
  AHNAK NM_001620 expression Mean: 522.882
  ANAPC13 NM_015391 expression Mean: 549.873
  ANXA1 NM_000700 expression Mean: 1242.05
  ANXA2 NM_0010028 expression Mean: 3575.79
  AW972815 expression Mean: 1125.31
  BAG3 NM_004281 expression Mean: 1275
  BCL11A NM_022893 expression Mean: 399.892
  BIRC5 NM_001168 expression Mean: 873.507
  BTG2 NM_006763 expression Mean: 474.998
  C9orf6 NM_017832 expression Mean: 333.034
  C10orf2 NM_021830 expression Mean: 515.45
  C10orf58 NM_032333 expression Mean: 983.117
  C16orf93 NM_0010149 expression Mean: 392.581
  CA2 NM_000067 expression Mean: 678.212
  CATSPER2 NM_172097 expression Mean: 1806.2
  CAV1 NM_001753 expression Mean: 740.14
  CCND1 NM_053056 expression Mean: 4666.94
  CDKN1A NM_000389 expression Mean: 1938.97
  CDX1 NM_001804 expression Mean: 802.577
  CEACAM1 NM_0010249 expression Mean: 229.793
  CIRH1A NM_032830 expression Mean: 1971.98
  CLCF1 NM_013246 expression Mean: 340.544
  CLDN10 NM_006984 expression Mean: 407.272
  CNN3 NM_001839 expression Mean: 1086.56
  COL7A1 NM_000094 expression Mean: 1054.31
  COL17A1 NM_000494 expression Mean: 521.166
  CRABP2 NM_001878 expression Mean: 2128.79
  CRIPT NM_014171 expression Mean: 613.112
  CTNNB1 NM_0010982 expression Mean: 342.941
  CUEDC1 NM_017949 expression Mean: 525.909
  CXCL14 NM_004887 expression Mean: 366.998
  CXXC1 NM_014593 expression Mean: 1743.77
  CXorf40A NM_178124 expression Mean: 324.823
  CYR61 NM_001554 expression Mean: 634.193
  DDX51 NM_175066 expression Mean: 1671.08
  DIMT1L NM_014473 expression Mean: 893.36
  DUSP5 NM_004419 expression Mean: 1627.42
  EBI3 NM_005755 expression Mean: 650.267
  EIF2C2 NM_012154 expression Mean: 794.459
  ELF3 NM_004433 expression Mean: 306.008
  ELF4 NM_001421 expression Mean: 721.011
  EMILIN2 NM_032048 expression Mean: 650.943
  EOMES NM_005442 expression Mean: 387.137
  FAM53C NM_016605 expression Mean: 2860.96
  FAM123B NM_152424 expression Mean: 1182.82
  FLJ40504 NM_173624 expression Mean: 3003.39
  FOXO3 NM_201559 expression Mean: 639.391
  GAD1 NM_000817 expression Mean: 287.008
  GAD1 NM_013445 expression Mean: 372.485
  GALNAC4S-6 NM_015892 expression Mean: 704.001
  GEMIN4 NM_015721 expression Mean: 1411.28
  GLIPR2 NM_022343 expression Mean: 792.16
  GNL3L NM_019067 expression Mean: 392.011
  GNL3 NM_206826 expression Mean: 1332.63
  GPATCH4 NM_182679 expression Mean: 1117.44
  GPER NM_0010399 expression Mean: 305.922
  GPR56 NM_201524 expression Mean: 378.312
  GPR56 NM_201525 expression Mean: 392.608
  GPR177 NM_0010022 expression Mean: 251.287 and 391.197
  GPR177 NM_024911 expression Mean: 515.533
  GTF3C6 NM_138408 expression Mean: 503.701
  H2AFY NM_004893 expression Mean: 2387.37
  HARS NM_002109 expression Mean: 1887.22
  HCLS1 NM_005335 expression Mean: 319.822
  HES2 NM_019089 expression Mean: 310.888
  HSPA1A NM_005346 expression Mean: 699.362
  HSPA8 NM_006597 expression Mean: 3448.31
  HSPA8 NM_153201 expression Mean: 5257.42
  HSPH1 NM_006644 expression Mean: 565.151
  ID3 NM_002167 expression Mean: 3392.56
  IER3 NM_003897 expression Mean: 835.676
  IL2RB NM_000878 expression Mean: 274.617
  ITPRIP NM_033397 expression Mean: 346.452
  JTV1 NM_006303 expression Mean: 1876.43
  KAT2A NM_021078 expression Mean: 1965.54
  KIAA0101 NM_014736 expression Mean: 468.29
  KRT8 NM_002273 expression Mean: 3394.59
  LEFTY2 NM_003240 expression Mean: 1161.57
